Measured values reported in PMC4834746 (Anesthesiology and Pain Medicine, 2016).
“Also recorded” adds a separate entry of the source. Structures can show the parent of a compound that is named as a salt. Where two headings read alike, the source gives them in different places.

Key:
[1] = AM404 concentration in rat plasma after oral administration of acetaminophen; type: in vivo; settings: oral 20 mg/kg acetaminophen, data not shown
[2] = type: in vivo, rat
[3] = type: in vivo, rat; settings: for half-life: t1/2, rat plasma
[4] = male, Crl:CD(SD), rat, brain, po, 20 mg/kg
[5] = male, Crl:CD(SD), rat, plasma, po, 20 mg/kg
[6] = male, Crl:CD(SD), rat, plasma, po, 20 mg/kg, oral 20 mg/kg acetaminophen, mean
[7] = rat plasma, oral 20 mg/kg acetaminophen, mean, 20 mg/kg
[8] = rat plasma, oral 20 mg/kg acetaminophen, mean

Row | AUC(0-t) [3, 5] [ng·h/mL] | Cmax [3, 5] [ng/mL] | k el [3, 5] [s⁻¹] | half-life [3, 6] [min] | t1/2 [3, 7] [min] | AUC0-2h [3, 8] [µg·h/g] | Cmax [3, 8] [µg/g] | Kel [3, 8] [h⁻¹] | tmax [3, 8] [min] | SMILES | t1/2 [3, 8] [min] | also measured
1 | – | – | – | – | – | – | – | – | – | CCCCC/C=C\C/C=C\C/C=C\C/C=C\CCCC(=O)Nc1ccc(O)cc1 [AM404, N-(4-hydroxyphenyl) arachidonamide] | – | concentration of AM404 in plasma [1]: undetectable; also recorded: unable to detect; conversion rate of acetaminophen to AM404 ([2]; calculated using AUC0-2h, oral 20 mg/kg acetaminophen, rat): 0.0013%; half-life [2, 4]: 18.3 min; k el [2, 4]: 0.000631 s⁻¹; AUC0-2h ([2]; rat brain, oral 20 mg/kg acetaminophen, mean): 117 pg·h/g
2 | 8960 | 15800 | 0.000644 | 17.9 | – | – | – | – | – | CC(=O)Nc1ccc(O)cc1 [APAP, Acetaminophen, reference compound] | – | –
3 | 7990 | 9300 | 0.000533 | 25 | 21.7 | – | – | – | – | CC(=O)Nc1ccc(O[C@@H]2O[C@H](C(=O)O)[C@@H](O)[C@H](O)[C@H]2O)cc1 [Glu, acetaminophen glucuronide] | – | tmax [3, 5]: 15 min
4 | – | – | – | – | 25 | 22.2 | 21.7 | 1.67 | 15 | CC(=O)Nc1ccc(OS(=O)(=O)O)cc1 [Sul, acetaminophen sulfate] | – | –
5 | – | – | – | – | – | 0.251 | 0.258 | 1.44 | 30 | CC(=O)Nc1ccc(O)c(SC[C@H](N)C(=O)O)c1 [Sys, Acetaminophen cysteine] | 29 | –

Row | SMILES | AUC(0-t) [3, 5] [ng·h/mL] | Cmax [3, 5] [ng/mL] | k el [3, 5] [s⁻¹] | half-life [3, 6] [min] | t1/2 [3, 7] [min] | AUC0-2h [3, 8] [µg·h/g] | Cmax [3, 8] [µg/g] | Kel [3, 8] [h⁻¹] | tmax [3, 8] [min] | t1/2 [3, 8] [min] | also measured
6 | CC(=O)Nc1ccc(O)c(SC[C@H](NC(C)=O)C(=O)O)c1 [Mer, acetaminophen mercapturate acid] | – | – | – | – | – | 0.167 | 0.154 | 0.890 | 30 | 46.7 | –
